Measurements reported in paper PMC5940903, “Supramolecular Kandinsky circles with high antibacterial activity” (Nature Communications, 2018).
Read-outs that look alike come from different tables or passages of the source.

Assays:
[1] = test system: Methicillin-resistant S. aureus (MRSA, ATCC 33591); assay: microbe, parasite or virus in culture; type: cell-based, Staphylococcus aureus; settings: for MIC: Staphylococcus aureus, read-out: MRSA (MIC)
Procedure: Therefore, increasing the solubility of high generation of nested hexagons may enable more efficient studies in biological media and translate to effective antimicrobial activity. […] In addition, the smaller size of G1 was expected to lead to weaker interaction with bacterial membranes.
(§1) Minimum inhibitory concentrations (MICs) against MRSA.4 The antimicrobial activity of the compounds are tested against Methicillin-resistant S. aureus (MRSA, ATCC 33591). Briefly, a single colony of MRSA bacterium was inoculated in 3 mL TSB medium and allowed to grow overnight at 37 °C. The bacteria culture was then diluted at 1:100 and the bacteria were able to re-grow to mid-logarithmic phase in 6-8 h. Next, 50 µL compounds in 2-fold serially diluted solution with the concentrations of 0.1-25 µg/mL were added the 96-well plate containing 50 µL of bacteria suspension (1 × 10^6 CFU/mL) in each well. Following that, the plate was incubated at 37 °C for 16 h, and the absorption of those wells at 600 nm wavelength was read on a Biotek Synergy H1 microtiter […]
growth of MRSA in 24 h. […]

[2] = test system: human red blood cells (hRBCs); assay: Hemolytic assay; type: cell-based; settings: 37 °C, 1 h
Procedure: as §1
growth of MRSA in 24 h. The experiment were repeated at least three times with duplicates each […]
Hemolytic assay.4 The freshly drawn human red blood cells (hRBCs) were washed with 1× PBS buffer multiple times and centrifuged at 3500 rpm for 10 min, until the supernatant became clear. Next, the supernatant was removed, and the RBCs were diluted into 5% v/v suspension. The aliquots of suspension (50 µL) were then incubated with compounds at various concentrations in 2-fold serially diluted solution (50 µL) at 37 °C for 1 h. The mixture was centrifuged at 3500 rpm for 10 min and the supernatant was collected. Following that, 100 µL PBS was added to 30 µL of the supernatant, and the absorbance of the solution at 540 nm was read on a Biotek Synergy H1 plate reader. 2% Triton X-100 was used as the positive control and 1× PBS was used the negative control.
The hemolysis activity was calculated by the formula % hemolysis =
(Abssample-AbsPBS)/(AbsTriton-AbsPBS)×100%. The experiment was repeated at least three times with […]
Conductance measurement on the planar lipid bilayer. The lipids
1,2-dipalmitoyl-sn-glycero-3-phosphatidylglycerol (DPPG, Avanti Polar Lipids) and 1,2-dipalmitoyl-sn-glycero-3-phosphatidylethanolamine (DPPE, Avanti Polar Lipids) were mixed in chloroform (9:1 in molar ratio, 10 mg/mL, 20 µL). […]

E. coli = assay: MIC against Gram-negative bacterium E. coli; type: cell-based
[3] = Escherichia coli, read-out: E. coli (MIC)

With CCCCCCCCCC(=O)N[C@@H](Cc1c[nH]c2ccccc12)C(=O)N[C@H](CC(N)=O)C(=O)N[C@@H](CC(=O)O)C(=O)N[C@@H]1C(=O)NCC(=O)N[C@@H](CCCN)C(=O)N[C@@H](CC(=O)O)C(=O)N[C@H](C)C(=O)N[C@@H](CC(=O)O)C(=O)NCC(=O)N[C@H](CO)C(=O)N[C@@H]([C@H](C)CC(=O)O)C(=O)N[C@@H](CC(=O)c2ccccc2N)C(=O)O[C@@H]1C [Daptomycin, daptomycin, reference compound] the “MRSA (MIC)” value ([1]; ATCC 33591) was 0.5 µg/mL.

With CCCCCCOc1c(-c2ccc(N)cc2)c(OCCCCCC)c(-c2ccc(-c3cc(-c4ccccn4)nc(-c4ccccn4)c3)cc2)c(OCCCCCC)c1-c1ccc(-c2cc(-c3ccccn3)nc(-c3ccccn3)c2)cc1 [L1] the MIC ([1]; MRSA ATCC 33591, TSB medium, 37 °C) was greater than 100 µg/mL, the “Hemolysis (H50)” value [2] was greater than 250 and the MIC (E. coli; Escherichia coli; read-out: E. coli (MIC)) was greater than 100 µg/mL.

For CCCCCCOc1c(-c2ccc(-c3cc(-c4ccccn4)nc(-c4ccccn4)c3)cc2)c(OCCCCCC)c(-c2ccc(-[n+]3c(-c4ccc(-c5ccc(-c6cc(-c7ccccn7)nc(-c7ccccn7)c6)cc5)cc4)cc(-c4ccc(C(C)(C)C)cc4)cc3-c3ccc(-c4ccc(-c5cc(-c6ccccn6)nc(-c6ccccn6)c5)cc4)cc3)cc2)c(OCCCCCC)c1-c1ccc(-c2cc(-c3ccccn3)nc(-c3ccccn3)c2)cc1 [L2], the MIC [1] was greater than 100 µg/mL, the “Hemolysis (H50)” value [2] was greater than 250 and the MIC (E. coli; [3]) was greater than 100 µg/mL.

With CCCCCCOc1c(-c2ccc(-c3cc(-c4ccccn4)nc(-c4ccccn4)c3)cc2)c(OCCCCCC)c(-c2ccc(-[n+]3c(-c4ccc(-c5ccc(-c6cc(-c7ccccn7)nc(-c7ccccn7)c6)cc5)cc4)cc(-c4ccc(-[n+]5c(-c6ccc(-c7ccc(-c8ccc(-c9cc(-c%10ccccn%10)nc(-c%10ccccn%10)c9)cc8)cc7)cc6)cc(-c6ccc(C(C)(C)C)cc6)cc5-c5ccc(-c6ccc(-c7ccc(-c8cc(-c9ccccn9)nc(-c9ccccn9)c8)cc7)cc6)cc5)cc4)cc3-c3ccc(-c4ccc(-c5cc(-c6ccccn6)nc(-c6ccccn6)c5)cc4)cc3)cc2)c(OCCCCCC)c1-c1ccc(-c2cc(-c3ccccn3)nc(-c3ccccn3)c2)cc1 [L3] the MIC [1] was greater than 100 µg/mL, the “Hemolysis (H50)” value [2] was greater than 250 and the MIC (E. coli; [3]) was greater than 100 µg/mL.
